Experimental data as given in patent publication US20240158448A1, “MULTIVALENT NANO-'SELF' PEPTIDES AND USES THEREOF” (THE TRUSTEES OF THE UNIVERSITY OF PENNSYLVANIA, priority 2021, published 2024).
“Also recorded” adds a separate entry of the source. No end group written: not given here.

Columns and labels:
human THP-1 macrophages [1] = experiment: In vitro phagocytosis assay: opsonized human RBCs engulfed by peptide-treated THP-1 macrophages; type: cell-based
Protocol: In vitro phagocytosis assay. Fresh human RBCs were washed twice with 50 mM EDTA (Thermo Fischer) in PBS (Gibco) then twice with 5% FBS in PBS. RBCs were opsonized with 20 μg/mL rabbit anti-human RBC antibody (Rockland) in 5% FBS for 1 hour at RT with shaking. For CD47 blocked RBCs, 5 μg/mL of mouse anti-human CD47 (B6H12; BD Biosciences) were added. Thereafter, RBCs were washed with PBS three times and stained with PKH26 dye (1:800 dilution in PBS; Sigma) for 1 hour at RT with shaking in the dark. RBCs were washed and resuspended in PBS.
THP-1 monocytes were PMA differentiated in RPMI for 48 hours. Macrophages were then washed with RPMI media three times. For SIRPα blocked THP-1 macrophages, 20 nM, 1 μM or 50 μM of the nano—Self peptides were incubated with the THP-1 macrophages for 1 hour at 37 ° C., 5% CO2 and 95% humidity. Those THP-Is were then washed with RPMI three times.
(§1) CO2 and 95% humidity. Macrophages were then washed with RPMI three times. Adherent and uninternalized RBCs were lysed with water for 30 seconds followed by immediate replacement with RPMI media. In order to distinguish remaining adherent RBCs from internalized RBCs, opsonized RBCs were stained with AlexaFluor 647 donkey anti-rabbit (binds to rabbit polyclonal opsonin on RBC; Invitrogen) IgG (1:1000) while unopsonized, CD47 blocked RBCs were stained with AlexaFluor 647 donkey anti-mouse (binds to mouse monoclonal anti-CD47 on RBCs; Invitrogen) IgG (1:1000) for 30 minutes. After washing, macrophages were fixed with 4% formaldehyde for 15 minutes at RT, washed with PBS, stained with 1 μg/mL Hoechst 33342, and then washed with PBS again. Fluorescence imaging was performed as described elsewhere herein and quantification was done using ImageJ. At least 200 cells were analyzed and experiments were repeated at least three times.

THP-1 macrophages = experiment: Phosphotyrosine (pTyr) staining of THP-1 macrophages; type: cell-based, human; conditions: 50 μM peptide
Protocol: Phosphotyrosine (pTyr) staining. THP-1 monocytes were PMA differentiated for 48 hours. Macrophages were washed with RPMI three times then incubated with 50 μM and 20 nM of either nS-F or nS-FF for 1 hour at 37° C., 5% CO2 and 95% humidity. The same conditions were replicated with the addition of 5 μg/mL anti-CD47. Excess peptide was washed with PBS then macrophages were fixed. […] After washing with PBS, the macrophages were incubated with 1:100 mouse anti-pTyr (Santa Cruz Biotechnology) for 1 hour at room temperature with shaking. Macrophages were washed with PBS then stained with AlexaFluor 488 donkey anti-mouse (1:1000; Invitrogen) and 1 μg/mL Hoechst 33342 for 1 hour with shaking then washed again. Fluorescence imaging and quantification was performed as described elsewhere herein.

[2] = test system: mouse bone marrow derived macrophages (BMDMs); experiment: Phagocytosis of anti-TYRP1 opsonized B16F10 melanoma cells by mouse bone marrow derived macrophages; type: cell-based; conditions: 50 μM peptide
Protocol: B16F10 cells: Bone marrow cells were isolated from femurs and tibias of healthy C57BL6/J mice (The Jackson Laboratory) and cultured in 10-cm petri dishes containing IMDM (Gibco) supplemented with 10% v/v FBS, 1% v/v penicillin/streptomycin, and 1:10,000 macrophage colony stimulating factor cytokine (M-CSF; Biolegend) for 7 days at 37° C., 5% CO2 and 95% humidity. All animal experiments were performed according to protocols approved by the University of Pennsylvania's IACUC (protocol #805977 and #804455). The resulting mouse bone marrow derived macrophages (BMDMs) were washed with PBS containing Ca2^+/Mg2^+ (Gibco) then detached with 0.25% trypsin-EDTA (Gibco) and re-plated in 6-well tissue culture plates using IMDM+M-CSF for 24 hours.
Mouse melanoma B16F10 cells were washed with PBS containing Ca2-/Mg2- and then trypsinized with 0.05% trypsin-EDTA. After washing twice with PBS, the cells were labeled with 1:10,000 CFDA—SE (Thermo Fisher) in PBS for 10 minutes. B16F10 cells were opsonized with 10 μg/mL anti-TYRP1 (TA99; Bio X Cell) in PBS for 2 hours at 4° C.with occasional inverting. For CD47 blocked B16F10 cells, 5 μg/mL of […] were added. During the incubation time, the BMDMs were washed with media then stained with 1:2,000 CellTracker Deep Red (Thermo Fisher) in PBS with Ca2^+/Mg2^+ for 10 min. After washing, 50 μM of the nano—Self peptides were incubated with the BMDMs for 1 hour at 37° C., 5% CO2 and 95% humidity. Finally, BMDMs were washed twice with PBS and then twice with serum-free IMDM.
Without removing the supernatant, the opsonized melanoma cells were added to the labeled BMDMs at a ratio of 2:1 for 2 hours at 37° C., 5% CO2 and 95% humidity. During the last 15 minutes of the assay, the cells were Hoechst stained. The wells were washed with serum free IMDM then fixed with 4% formaldehyde for 15 minutes at RT, and PBS washed. Fluorescence imaging was performed using an Olympus IX71 with a digital EMCCD camera (Cascade 512B) and a 40×/0.6 NA objective. Quantification was done with ImageJ (NIH). At least 200 cells were analyzed and two-tailed student's t-test was used to determine statistical significance.

human THP-1 macrophages [3] = experiment: Residual adhesion of opsonized RBCs to macrophages; type: cell-based; conditions: 50 μM peptide
From the text: To measure the residual adhesion of RBCs and distinguish it from internalization by macrophages, the engulfment assay with human RBCs used a secondary antibody against the opsonizing IgG, which allowed us to clearly see RBCs in contact with macrophages that are not internalized (FIG. 29C). The cells are also firmly attached to the macrophages because the culture dishes were rinsed after fixation and secondary antibody labeling. […] All of the RBCs in these samples are equally opsonized with IgG that binds Fc-receptors (FcR's) on macrophages, and so differences in measured adhesion implicate differences in the CD47—SIRPα interaction.

[4] = test system: A549 (SIRPα positive) cells; experiment: Confocal live staining with FAM-labeled peptides, A549 cells; type: binding, human; conditions: 100 uM and 1 μM FAM-labeled peptide
Protocol: SIRPα staining and confocal imaging. THP-1 monocytes were PMA-differentiated in RPMI 1640 for 24 hours. J774A.1, A549, and COS-1 cells were plated for 24 hours in media, respectively. Cells were washed with respective media prior to addition of fluorescent peptides. The peptides were left to incubate for 1 hour at 37 ° C., 5% CO2 and 95% humidity. For fixed cell staining, cells were incubated with 4% formaldehyde (Pierce) for 15 minutes prior to the addition of fluorescent peptides whereas for live cell staining, fixation was done after incubation with the FAM-labeled peptides. Nuclei were stained with 1 μg/mL Hoechst 33342 (Invitrogen). Cells were the washed PBS three times before analysis. Fluorescence imaging of fixed cells was performed using an Olympus IX71 with a digital EMCCD camera (Cascade 512B) and a 40×/0.6 NA objective. […] Quantification was done with ImageJ (NIH).
In order to visualize the uneven binding of the peptides to the surface of the macrophages, a live staining experiment of THP-1, J774A.1, and A549 cells, which all express SIRPα at different levels, was performed with FAM-labeled nS-wt and nS-X and analyzed by confocal microscopy (FIG. 11). […] Fluorescence of nS-X was consistently lower on THP-1 and J774A.1 macrophages relative to nS-wt. […]

[5] = test system: mouse J774A.1 macrophages; experiment: In vitro phagocytosis assay: opsonized human RBCs engulfed by mouse J774A.1 macrophages; type: cell-based; conditions: saturating / 50 μM peptide
Protocol: as §1, with “In vitro phagocytosis assay. […] For CD47 blocked RBCs, 5 μg/mL of mouse anti-human CD47 (B6H12; BD Biosciences) were added. Thereafter, RBCs were washed with PBS three times and stained with PKH26 dye (1:800 dilution in PBS; Sigma) for 1 hour at RT with shaking in the dark. RBCs were washed and resuspended in PBS. J774A.1 macrophages were plated for 24 hours in RPMI. For SIRPα blocked J774A.1 macrophages, the same peptide blocking procedure as described elsewhere herein was used with the addition of a positive control using 5 μg/mL rat anti-mouse SIRPα ([…]; BD Biosciences). […] CO2” for “CO2”

soluble human SIRPα = target: T1, soluble human SIRPα (Homo sapiens, UniProt P78324); experiment: Binding of biotinylated peptides on streptavidin beads to soluble SIRPα
T1 construct: Soluble human SIRPα fused with glutathione s-transferase (SIRPα-GST); GST (glutathione S-transferase); made in house
From the text: SIRPα Expression and Purification. Soluble human SIRPα fused with glutathione s-transferase (SIRPα-GST) was expressed and purified as previously published (Tsai, et al., 2008, J. Cell Biol. 180:989-1003).
Peptide biotinylation: NHS-biotin (Thermo Fischer) was mixed with nS-wt and nS-V, respectively, following the manufacturer's protocol. The biotinylated peptides were dialyzed against PBS.
Streptavidin-beads binding: Streptavidin-coated polystyrene beads of 2.1 μm radius (Spherotech) were washed and blocked 3x in PBS plus 0.4% BSA. nS-wt-biotin or nS-V-biotin were incubated with the beads for 1 hour at room temperature with shaking. Beads were washed with PBS, then incubated with recombinant SIRPα for 1 hour in ice. Streptavidin beads were labeled with rabbit anti-streptavidin-FITC (Invitrogen) and SIRPα was stained with mouse anti-SIRPα-allophycocyanin (anti-SIRPα-APC; Invitrogen).

T1 sequence (P78324 31-373 limits assumed): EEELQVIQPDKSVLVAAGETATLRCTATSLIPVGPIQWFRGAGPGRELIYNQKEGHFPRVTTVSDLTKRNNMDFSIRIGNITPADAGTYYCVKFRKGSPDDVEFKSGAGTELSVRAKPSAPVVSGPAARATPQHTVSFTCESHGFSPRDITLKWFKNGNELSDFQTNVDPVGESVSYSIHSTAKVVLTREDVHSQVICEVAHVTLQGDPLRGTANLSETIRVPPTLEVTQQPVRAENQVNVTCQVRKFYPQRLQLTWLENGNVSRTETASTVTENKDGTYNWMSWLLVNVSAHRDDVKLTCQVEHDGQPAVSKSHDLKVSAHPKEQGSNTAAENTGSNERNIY

Row | Sequence | effect on phagocytosis of opsonized RBCs (words) (human THP-1 macrophages [1]; saturating / 50 μM peptide) | effect on phagocytosis of opsonized RBCs (words) (human THP-1 macrophages [1]; saturating / 50 μM peptide, listed as nSX) | effect on pTyr signal (THP-1 macrophages) | effect on pTyr signal (THP-1 macrophages; listed as nSX) | effect on phagocytosis of opsonized WT and SIRPα KO B16 cells [2] | residual adhesion of opsonized RBCs to macrophages (human THP-1 macrophages [3]) | binding to A549 cells [4] | effect on phagocytosis of opsonized RBCs (words) (human THP-1 macrophages [1]; 20 nM peptide) | increase of macrophage phagocytosis relative to nS-wt (human THP-1 macrophages [1]; saturating peptide) | effect on phagocytosis of opsonized RBCs (words) [5] | SIRPα binding to peptide-coated beads (soluble human SIRPα)
1 | LETVEGTR (LETVEGTR-NH2) [nS-X, scrambled control peptide] | no effect is observed; also recorded: unaffected; also recorded: do not affect baseline engulfment of opsonized RBCs; also recorded: does not affect opsonization-driven eating of RBCs | do not have effects on phagocytosis | inhibition of phosphorylation is not observed | had no effect on pTyr | no effect; also recorded: does not affect opsonization-driven eating | predominantly adherent RBCs | fluorescence was not observed at either concentration | – | – | – | –
2 | VTELFREG (VTELFREG-NH2) [nS-F, nano-Self peptide with Thr to Phe mutation] | significantly greater than any other peptide tested; also recorded: Maximum levels of phagocytic macrophages | – | also suppressed pTyr | – | Maximum levels of phagocytic macrophages | lowest amount of residual adhesion to macrophages | – | did not significantly change the amount of macrophage eating relative to anti-CD47 treatment; also recorded: only modest activity | roughly 25% | significantly greater than any other peptide tested | –
3 | VTELVREG [nS-V, VTELVREG] | activity profiles in phagocytosis assays that are similar to the monovalent nS-F | – | – | – | – | – | – | did not significantly change the amount of macrophage eating relative to anti-CD47 treatment | – | – | fluorescence is only observed in the presence of biotinylated peptide
